The source of these data is patent publication EP0457326A1, “Antiviral agents” (SYNTEX (U.S.A.) INC., priority 1990, dated 1991).

The conditions of series [1]: prior art statement; cited from earlier work.
Series [2] has as its system HIV. The conditions noted are these: prior art statement; cited from earlier work.
The conditions of series [3]: preliminary results of Biochemical Pharmacology 38, 869-74 (1989); cited from earlier work.
The test system of series [4] is HIV (LAV Strain). The series can be described thus: Antiviral activity in HIV-infected A301 (Alex) cells, read out by reverse transcriptase level. It counts as cell-based. The conditions noted are these: Human immunodeficiency virus 1, 168 h. On the procedure:
This procedure is a modification of a procedure initially described by Chen et al., Biochemical Pharmacology, 36 (24), 4361-4362 (1987).
A301 (Alex) cells are pre-infected with a constant amount of HIV (LAV Strain) for three hours at 37°C. Test compounds and AZT (control) are added to the infected cells in two, three or five-fold dilutions, diluted out four places for screening and eight places for confirmation in 96 well plates. Unless mentioned the highest concentration is […]. The test plates are incubated in CO₂ at 37°C for seven days (incubation time depends on virus pool titer) with a partial medium/sample change on day four of the incubation period. Uninfected A301 cells with sample dilutions, but without virus, are used to evaluate cytotoxicity.
Reverse transcriptase levels are assayed at the end of the incubation period as follows, to determine if antiviral activity is present.
[…] of medium from the HIV infected Alex cells is added to […] of 3.2% Triton X-100. This solution is incubeted for 30 minutes at 37°C, then […] of 4X assay mix is added to it. The 4X assay mix contains [³H]TTP, poly(A).oligo(dT), potassium chloride, magnesium chloride, dithiothreitol, and Tris-HCl buffer, pH8.0. […] The radioactivity remaining on the 3MM paper is quantitated by scintillation counter, and corresponds to reverse transcriptase level.

Series [5] in a line: Cytotoxicity in uninfected A301 cells. It counts as cell-based. The conditions noted are these: human; uninfected A301 cells with sample dilutions, without virus; read-out: Cell Toxicity Partial. On the procedure:
(§1) A301 (Alex) cells are pre-infected with a constant amount of HIV (LAV Strain) for three hours at 37°C. […] Unless mentioned the highest concentration is 200 mM. The test plates are incubated in CO₂ at 37°C for seven days (incubation time depends on virus pool titer) with a partial medium/sample change on day four of the incubation period. Uninfected A301 cells with sample dilutions, but without virus, are used to evaluate cytotoxicity.

The subject of series [6] is Uninfected A301 cells. The series is described as follows: Cytotoxicity in uninfected A301 cells. It counts as cell-based. The conditions noted are these: uninfected A301 cells with sample dilutions, without virus. On the procedure:
as §1

Structures are written as SMILES. Read-outs that look alike come from different tables or passages of the source.

In the case of `[N-]=[N+]=N[C@]1(CO)O[C@@H](n2ccc(N)nc2=O)[C@H](O)[C@@H]1O` [4'-azidocytidine], the cytotoxicity result in series [1] is reported as “cytotoxic”. For the same compound, in series [2], the anti-HIV activity entry was “devoid of anti-HIV activity”.

On to `[N-]=[N+]=N[C@H]1C[C@H](n2cc(Cl)c(=O)[nH]c2=O)O[C@@H]1CO` [5-chloro-substituted-3'-azido-2',3'-dideoxyuridine], for which, in series [3], the antiviral activity entry was “potent antiviral activity”.

As to `O=c1[nH]c(=O)n([C@H]2C[C@H](F)[C@@H](CO)O2)cc1Cl` [5-chloro-substituted-3'-fluoro-2',3'-dideoxyuridine], the antiviral activity entry in series [3] is reported as “potent antiviral activity”.

For the compound `[N-]=[N+]=N[C@]1(CO)O[C@@H](n2cc(Cl)c(=O)[nH]c2=O)C[C@@H]1O` [A, 1-(4-azido-2-deoxy-β-D-erythro-pentofuranosyl)-5-chloro-2,4-dioxopyrimidine], the EC50 (in general, the midpoint of the concentration-response curve) in series [4] (A301 (Alex) cells pre-infected with HIV (LAV Strain), seven days incubation, reverse transcriptase level, read-out: EC50) is 56 nM. In series [5], the MCC at 168 h came to 1 mM. Moreover, the “Cell Toxicity Complete” value in series [6] was greater than 1000 µM.

Turning to `Cc1cn([C@H]2C[C@H](N=[N+]=[N-])[C@@H](CO)O2)c(=O)[nH]c1=O` [control, 3'-azidothymidine], the EC50 in series [4] came to 5 nM. For the same compound, the MCC at 168 h in series [5] is greater than 0.04 mM. Also, in series [6], the “Cell Toxicity Complete” value is greater than 40 µM.
